According to ChEMBL document CHEMBL4831477, “Structure-Enabled Discovery of Novel Macrocyclic Inhibitors Targeting Glutaminase 1 Allosteric Binding Site” (J Med Chem, 2021):
In brackets after ≈: the same amount, converted by molar mass.

Tests used:
[1] = molecular target: T1, Glutaminase kidney isoform, mitochondrial (Homo sapiens) (UniProt O94925)
T1 sequence (whole entry): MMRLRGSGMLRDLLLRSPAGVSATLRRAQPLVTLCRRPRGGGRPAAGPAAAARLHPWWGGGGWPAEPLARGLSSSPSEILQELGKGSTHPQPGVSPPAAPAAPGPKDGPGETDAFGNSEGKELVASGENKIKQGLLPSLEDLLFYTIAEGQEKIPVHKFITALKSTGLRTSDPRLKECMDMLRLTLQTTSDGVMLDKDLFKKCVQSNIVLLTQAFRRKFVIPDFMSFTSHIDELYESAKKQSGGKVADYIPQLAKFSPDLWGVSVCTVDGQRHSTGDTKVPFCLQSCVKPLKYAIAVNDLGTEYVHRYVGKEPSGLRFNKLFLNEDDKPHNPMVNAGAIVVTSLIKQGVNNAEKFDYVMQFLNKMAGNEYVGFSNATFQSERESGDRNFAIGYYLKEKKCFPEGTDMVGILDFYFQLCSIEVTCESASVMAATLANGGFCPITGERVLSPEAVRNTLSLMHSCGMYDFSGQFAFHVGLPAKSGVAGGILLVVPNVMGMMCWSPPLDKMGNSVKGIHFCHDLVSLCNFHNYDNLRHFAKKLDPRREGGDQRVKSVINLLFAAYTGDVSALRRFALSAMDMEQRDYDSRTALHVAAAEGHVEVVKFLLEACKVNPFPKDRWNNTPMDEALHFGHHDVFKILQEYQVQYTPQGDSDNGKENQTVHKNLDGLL
Description: Binding affinity to human GLS1 expressed in Escherichia coli strain BL21 (DE3) assessed as change in melting temperature by SYPRO orange dye based protein thermal shift assay

[2] = Distribution coefficient, logD of the compound at pH 7.4 by LC-MS based shake-flask method; format: physicochemical; conditions: octanol/water, read-out: logD
[3] = Intrinsic aqueous solubility of compound at pH 7.4 by LC-MS based shake-flask method; format: physicochemical; conditions: read-out: Intrinsic_solubility
MDA-MB-436 = assay: Antiproliferative activity against human MDA-MB-436 cells assessed as reduction in cell viability incubated for 72 hrs by MTT assay; format: functional, cell-based; conditions: MDA-MB-436, 72 h
HCT-116 [4] = assay: Inhibition of colony formation in human HCT-116 cells incubated for 14 days by crystal violet staining based assay; format: functional, cell-based; conditions: dose 0.1-2 µM, time 14.0 day
HCT-116 [5] = assay: Antiproliferative activity against human HCT116 cells assessed as reduction in cell viability incubated for 72 hrs by MTT assay; format: functional, cell-based; conditions: HCT-116, 72 h
[6] = molecular target: T2, Glutaminase kidney isoform, mitochondrial (Homo sapiens, UniProt O94925); assay: Inhibition of recombinant human GLS1 expressed in Escherichia coli strain BL21 (DE3) preincubated for 10 mins before glutamine addition and measured after 60 mins by bovine liver glutamate dehydrogenase based coupled enzyme assay
T2 sequence (O94925 whole entry): T1 sequence (whole entry)

ΔTm [1] | logD [2] | solubility thermodynamic [3] | IC50 (MDA-MB-436) | IC50 (HCT-116 [5]) | IC50 [6] | SMILES | inhibition (HCT-116 [4])
17.2 °C | 2.79 | 2.16 µg/mL (≈ 3.78 µM) | 0.64 µM | 0.26 µM | 0.032 µM | O=C1Cc2cccc(c2)OC/C=C/COc2cccc(c2)CC(=O)Nc2nnc(s2)CCCCc2ccc(nn2)N1 | Dose-Dependent Effect
17.7 °C | 3.72 | 1.09 µg/mL (≈ 1.66 µM) | 0.71 µM | 0.38 µM | 0.037 µM | O=C1Cc2ccccc2OCCCC/C=C/CCCCOc2cccc(c2)CC(=O)Nc2nnc(s2)CCCCc2ccc(nn2)N1 | 
16.1 °C | 2.98 | 0.36 µg/mL (≈ 0.624 µM) | 0.79 µM | 0.42 µM | 0.076 µM | O=C1Cc2ccc(cc2)OC/C=C/COc2ccc(cc2)CC(=O)Nc2nnc(s2)CCCCc2nnc(s2)N1 | 
15.9 °C | 3.16 | 0.31 µg/mL (≈ 0.513 µM) | 0.47 µM | 0.35 µM | 0.047 µM | O=C1Cc2cccc(c2)OCC/C=C/CCOc2cccc(c2)CC(=O)NC2=NN=C(CCCCC3=NN=C(N1)S3)S2 | 
15.9 °C | 2.53 | 2.34 µg/mL (≈ 3.58 µM) | 0.84 µM | 0.52 µM | 0.075 µM | O=C1CC/C=C/CCC(=O)Nc2cccc(c2)CC(=O)Nc2nnc(s2)CCCCc2ccc(nn2)NC(=O)Cc2cccc(c2)N1 | Dose-Dependent Effect
16.7 °C | 4.29 | 1.84 µg/mL (≈ 3.35 µM) | 0.51 µM | 0.14 µM | 0.025 µM | O=C1CCc2cccc(c2)OCCCC/C=C/CCCC(=O)Nc2nnc(s2)CCCCc2ccc(nn2)N1 | Dose-Dependent Effect
16.3 °C | 3.89 | 1.97 µg/mL (≈ 3.5 µM) | 1.82 µM | 0.68 µM | 0.123 µM | O=C1CCCC/C=C/CCCCOc2cccc(c2)CCC(=O)Nc2nnc(s2)CCCCc2ccc(nn2)N1 | 
11.7 °C | 3.08 | 2.05 µg/mL (≈ 3.94 µM) | 6.3 µM | 1.45 µM | 0.372 µM | O=C1CCc2cccc(c2)OCC/C=C/CCCC(=O)Nc2nnc(s2)CCCCc2ccc(nn2)N1 | 
 |  |  |  |  | 0.068 µM | C=CCCOc1cccc(CC(=O)Nc2ccc(CCCCc3nnc(NC(=O)Cc4cccc(OCCC=C)c4)s3)nn2)c1 | 
